Laboratory results taken from patent US20150141411A1, “SUBSTITUTED 3,4-DIHYDRO-2H-PYRIDO[1,2-A]PYRAZINE-1,6-DIONE DERIVATIVES USEFUL FOR THE TREATMENT OF (INTER ALIA) ALZHEIMER'S DISEASE” (Janssen Pharmaceuticals, Inc., priority 2012, published 2015).

The compounds below were run on Aβ38 (assay: In vivo efficacy: brain soluble Aβ38 in non-transgenic rodents (ELISA)). Conditions: Mus musculus, dose 30 mg/kg oral dosing, brain soluble fraction, animals sacrificed after 4 h, untreated animals (Ctrl) set at 100, read-out: Aβ38 (% vs Ctrl)_Mean.
From the text: To determine whether acute administration of an Aβ38 increasing agents would increase Aβ38 levels in vivo, non-transgenic rodents, e.g. mice or rats were used. Animals treated with the Aβ38 increasing agents were examined and compared to those untreated or treated with vehicle and brain levels of soluble Aβ38 and total Aβ were quantitated by standard techniques, for example, using ELISA. Treatment periods varied from hours (h) to days and were adjusted based on the results of the Aβ38 increase once a time course of onset of effect could be established.
A typical protocol for measuring Aβ38 increase in vivo is shown but it is only one of many variations that could be used to optimize the levels of detectable Aβ. For example, Aβ38 increasing agents were formulated in 20% of Captisol® (a sulfobutyl ether of β-cyclodextrin) in water or 20% hydroxypropyl βcyclodextrin. The Aβ38 increasing agents were administered as a single oral dose or by any acceptable route of administration to overnight fasted animals. After 4 h, the animals were sacrificed and Aβ38 levels were analysed.
Blood was collected by decapitation and exsanguinations in EDTA-treated collection tubes. Blood was centrifuged at 1900 g for 10 minutes (min) at 4° C. and the plasma recovered and flash frozen for later analysis. The brain was removed from the cranium and hindbrain. The cerebellum was removed and the left and right hemisphere were separated. The left hemisphere was stored at −18° C. for quantitative analysis of test compound levels. The right hemisphere was rinsed with phosphate-buffered saline (PBS) buffer and immediately frozen on dry ice and stored at −80° C. until homogenization for biochemical assays.
Mouse brains from non-transgenic animals were resuspended in 8 volumes of 0.4% DEA (diethylamine)/50 mM NaCl containing protease inhibitors (Roche-11873580001 or 04693159001) per gram of tissue, e.g. for 0.158 g brain, add 1.264 ml of 0.4% DEA. All samples were homogenized in the FastPrep-24 system (MP Biomedicals) using lysing matrix D (MPBio #6913-100) at 6 m/s for 20 seconds. Homogenates were centrifuged at 221.300×g for 50 min. The resulting high speed supernatants were then transferred to fresh eppendorf tubes. Nine parts of supernatant were neutralized with 1 part 0.5 M Tris-HCl pH 6.8 and used to quantify Aβ total and Aβ38.
To quantify the amount of Aβtotal and Aβ38 in the soluble fraction of the brain homogenates, Enzyme-Linked-Immunosorbent-Assays were used. Briefly, the standards (a dilution of synthetic Aβ1-40 and Aβ1-38, ANASPEC) were prepared in 1.5 ml Eppendorf tube in Ultraculture, with final concentrations ranging from 10000 to 0.3 pg/ml. The samples and standards were co-incubated with HRPO-labelled N-terminal antibody for Aβ38 detection and with the biotinylated mid-domain antibody 4G8 for Aβtotal detection. 50 μl of conjugate/sample or conjugate/standards mixtures were then added to the antibody-coated plate (the capture antibodies selectively recognize the C-terminal end of Aβ38, antibody J&JPRD/Aβ38/5, for Aβ38 detection and the N-terminus of Aβ, antibody JRF/rAβ/2, for Aβtotal detection). The plate was allowed to incubate overnight at 4° C. in order to allow formation of the antibody-amyloid complex. Following this incubation and subsequent wash steps the ELISA for Aβ38 quantification was finished by addition of Quanta Blu fluorogenic peroxidase substrate according to the manufacturer's instructions (Pierce Corp., Rockford, Ill.). A reading was performed after 10 to 15 min (excitation 320 nm/emission 420 nm).
In this model a Aβ38 increase compared to untreated animals would be advantageous, in particular a Aβ38 increase with at least 10%, more in particular a Aβ38 increase with at least 20%.
The results are shown in Table 4 (dose 30 mg/kg oral dosing) (value for untreated animals as control (Ctrl) was set at 100): […]
Work on Cc1cn(-c2ccc3n(c2=O)CCN(C(C)c2cccc(Cl)c2Cl)C3=O)cn1 (single isomer, unassigned) [10a] yielded a response vs control in vivo at 30 mg/kg of 85%. CCC1Cn2c(ccc(-n3cnc(C)c3)c2=O)C(=O)N1Cc1cc(C(F)(F)F)cc(C(F)(F)F)c1.Cl (stereo not drawn) [compound 1] was tested, and the response vs control in vivo at 30 mg/kg was 103%. Work on Cc1cn(-c2ccc3n(c2=O)C[C@@H](C)N(Cc2ccc(Cl)c(Cl)c2)C3=O)cn1 [compound 2] yielded a response vs control in vivo at 30 mg/kg of 129%. Compound Cc1cn(-c2ccc3n(c2=O)CC(C)N(Cc2cc(C(F)(F)F)cc(C(F)(F)F)c2)C3=O)cn1 (stereo not drawn) [compound 3] has a response vs control in vivo at 30 mg/kg of 137%. With Cc1cn(-c2ccc3n(c2=O)CCN(Cc2cccc(-c4ccccc4)c2)C3=O)cn1 [compound 5] the response vs control in vivo at 30 mg/kg was 110%. In the case of Cc1cn(-c2ccc3n(c2=O)CC(C)N(Cc2cc(OCC4CC4)cc(C(F)(F)F)c2)C3=O)cn1.Cl (stereo not drawn) [compound 6], the response vs control in vivo at 30 mg/kg is reported as 129%. CCc1cn(-c2ccc3n(c2=O)CC(C)N(Cc2cc(C(F)(F)F)cc(C(F)(F)F)c2)C3=O)cn1.Cl (stereo not drawn) [compound 7] was tested, and the response vs control in vivo at 30 mg/kg was 80%. Work on Cc1cn(-c2ccc3n(c2=O)CCN(Cc2ccccc2C)C3=O)cn1 [compound 22] yielded a response vs control in vivo at 30 mg/kg of 105%. Work on Cc1cn(-c2ccc3n(c2=O)C[C@@H](C)N(Cc2cccc(C(C)(C)C)c2)C3=O)cn1 [compound 23] yielded a response vs control in vivo at 30 mg/kg of 132%. With Cc1cn(-c2ccc3n(c2=O)C[C@@H](C)N(Cc2ccc(C(F)(F)F)c(C(F)(F)F)c2)C3=O)cn1 [compound 46] the response vs control in vivo at 30 mg/kg was 62%. For Cc1cn(-c2ccc3n(c2=O)C[C@@H](C)N(CCc2cc(C(F)(F)F)cc(C(F)(F)F)c2)C3=O)cn1 [compound 50], the response vs control in vivo at 30 mg/kg was 110%. Cc1cc(CN2C(=O)c3ccc(-n4cnc(C)c4)c(=O)n3C[C@H]2C)cc(C(F)(F)F)c1 [compound 59] was tested, and the response vs control in vivo at 30 mg/kg was 126%. Cc1cn(-c2ccc3n(c2=O)C[C@@H](C)N(Cc2ccc(Cl)c(C(F)(F)F)c2)C3=O)cn1 [compound 62] showed a response vs control in vivo at 30 mg/kg of 160%. Cc1cn(-c2ccc3n(c2=O)C[C@@H](C)N(Cc2cc(Cl)cc(C(F)(F)F)c2)C3=O)cn1 [compound 63] showed a response vs control in vivo at 30 mg/kg of 133%. Cc1cn(-c2ccc3n(c2=O)CCN(Cc2ccc(Cl)c(C(F)(F)F)c2)C3=O)cn1 [compound 65] gave a response vs control in vivo at 30 mg/kg of 132%. In the case of Cc1cn(-c2ccc3n(c2=O)C[C@@H](C)N(Cc2cc(N4CCC(C)CC4)ccc2Cl)C3=O)cn1 [compound 80], the response vs control in vivo at 30 mg/kg is reported as 118%. Compound Cc1cn(-c2ccc3n(c2=O)C[C@@H](C)N(Cc2cc(N4CCCC4)ccc2Cl)C3=O)cn1 [compound 82] has a response vs control in vivo at 30 mg/kg of 120%. Cc1cn(-c2ccc3n(c2=O)CCN(Cc2ccc(C)c(N4CCCCC4)c2)C3=O)cn1 [compound 99] gave a response vs control in vivo at 30 mg/kg of 92%.
